The compounds below were run against CD73 (Homo sapiens (Human), UniProt P21589) (assay: Biochemical assay: inhibition of CD73 activity (AMP hydrolysis, Malachite Green readout)). Conditions: CD73 0.3208 nM, AMP 15 μM, 25 mM Tris-HCl pH 7.4, RT, absorbance 620 nm.
Method: Example A1: Biochemical Assay
Assay Reaction Conditions
• Assay Volume: 70 μl • Reaction Volume: 50 μl • CD73: 0.3208 nM • AMP: 15 μM • Assay Buffer: 25 mM Tris-HCL, pH 7.4, 0.01% Brij-35, 0.01% BSA, 5 mM MgCl2 Assay Procedure:
Made dose titration of testing compounds in assay buffer, 10 points ½ log titrations in duplicates starting at 100 μM.
Added 25 μl of CD73 to each well for a final concentration of 320 pM.
Incubated at RT for 15 min.
Added 25 μl of AMP to each well for a final concentration of 15 μM.
Incubated at RT for 10 min.
Added 10 μl of Malachite Green Reagent A, incubate at RT for 10 min.
Added 10 of Malachite Green Reagent B, incubate at RT for 45 min.
Read the Absorbance on Envision plate reader using excitation filter: Cy5 […].
The ability of the compounds disclosed herein to inhibit CD73 activity was quantified and the respective IC50 values were determined. Table 2 provides the biochemical IC50 values of compounds disclosed herein.

CD73, sequence (P21589 27-574): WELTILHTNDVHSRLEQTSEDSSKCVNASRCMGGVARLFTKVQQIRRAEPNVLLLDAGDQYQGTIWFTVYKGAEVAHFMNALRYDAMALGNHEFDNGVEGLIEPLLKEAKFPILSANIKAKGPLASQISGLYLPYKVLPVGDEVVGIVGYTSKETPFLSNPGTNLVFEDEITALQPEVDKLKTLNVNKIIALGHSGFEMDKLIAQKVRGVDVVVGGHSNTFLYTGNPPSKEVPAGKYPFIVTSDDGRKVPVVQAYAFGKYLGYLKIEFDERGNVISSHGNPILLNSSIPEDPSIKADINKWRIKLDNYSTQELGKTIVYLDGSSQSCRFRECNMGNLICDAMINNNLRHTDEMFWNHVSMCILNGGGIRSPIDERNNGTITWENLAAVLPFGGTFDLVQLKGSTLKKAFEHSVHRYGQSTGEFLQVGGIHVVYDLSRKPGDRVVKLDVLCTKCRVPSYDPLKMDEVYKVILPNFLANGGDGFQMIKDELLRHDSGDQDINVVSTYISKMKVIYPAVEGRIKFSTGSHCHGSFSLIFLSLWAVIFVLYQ

Row | IC50 [nM] | Structure (SMILES)
1 | ≤ 100 | O=P(O)(O)[C@@](CO)(COCc1ccccc1)OC[C@H]1O[C@@H](n2ncc3c(NC4CCCC4)nc(Cl)nc32)[C@H](O)[C@@H]1O (racemic) [Example 180, rac-((R)-1-(benzyloxy)-2-(((2S,3R,4S,5S)-5-(6-chloro-4-(cyclopentyalmino)-1H-pyrazolo[3,4-d]pyrimidin-1-yl)-3,4-dihydroxytetrahydrofuran-2-yl)methoxy)-3-hydroxypropan-2-yl)phosphonic acid]
2 | ≤ 100 | O=P(O)(O)C(CO)(COCCO)OC[C@H]1O[C@@H](n2ncc3c(NC4CCCC4)nc(Cl)nc32)[C@H](O)[C@@H]1O (mixture of isomers) [Example 172, rac-(2-(((2R,3S,4R,5R)-5-(6-chloro-4-(cyclopentylamino)-1H-pyrazolo[3,4-d]pyrimidin-1-yl)-3,4-dihydroxytetrahydrofuran-2-yl)methoxy)-1-hydroxy-3-(2-hydroxyethoxy)propan-2-yl)phosphonic acid]
3 | ≤ 100 | COC[C@@](C)(OC[C@H]1O[C@@H](n2nnc3c(NC4CCCC4)nc(Cl)nc32)[C@H](O)[C@@H]1O)P(=O)(O)O [Example 109, ((S)-2-(((2R,3S,4R,5R)-5-(5-chloro-7-(cyclopentylamino)-3H-[1,2,3]triazolo[4,5-d]pyrimidin-3-yl)-3,4-dihydroxytetrahydrofuran-2-yl)methoxy)-1-methoxypropan-2-yl)phosphonic acid]
4 | ≤ 100 | O=C(O)c1ccccc1COCC(CO)(OC[C@H]1O[C@@H](n2ncc3c(NC4CCCC4)nc(Cl)nc32)[C@H](O)[C@@H]1O)P(=O)(O)O (mixture of isomers) [Example 227, rac-2-((2-(((2R,3S,4R,5R)-5-(6-chloro-4-(cyclopentylamino)-1H-pyrazolo[3,4-d]pyrimidin-1-yl)-3,4-dihydroxytetrahydrofuran-2-yl)methoxy)-3-hydroxy-2-phosphonopropoxy)methyl)benzoic acid]
5 | ≤ 100 | COC[C@@](C)(OC[C@H]1O[C@@H](n2nnc3c(NC4CCCC4)cc(Cl)nc32)[C@H](O)[C@@H]1O)P(=O)(O)O [Example 143, ((S)-2-(((2R,3S,4R,5R)-5-(5-chloro-7-(cyclopentylamino)-3H-[1,2,3]triazolo[4,5-b]pyridin-3-yl)-3,4-dihydroxytetrahydrofuran-2-yl)methoxy)-1-methoxypropan-2-yl)phosphonic acid]
6 | ≤ 100 | CC(CO)(OC[C@H]1O[C@@H](n2ncc3c(N[C@H]4CC[C@@H]5CCC[C@@H]54)nc(Cl)nc32)[C@H](O)[C@@H]1O)P(=O)(O)O (stereo partly drawn) [Example 141, (2-(((2R,3S,4R,5R)-5-(6-chloro-4-(((1S,3aS,6aS)-octahydropentalen-1-yl)amino)-1H-pyrazolo[3,4-d]pyrimidin-1-yl)-3,4-dihydroxytetrahydrofuran-2-yl)methoxy)-1-hydroxypropan-2-yl)phosphonic acid]
7 | ≤ 100 | C[C@@](CO)(OC[C@H]1O[C@@H](n2ncc3c(NC4CCCC4)nc(C#CCO)nc32)[C@H](O)[C@@H]1O)P(=O)(O)O (racemic) [Example 205, rac-((R)-2-(((2R,3S,4R,5R)-5-(4-(cyclopentylamino)-6-(3-hydroxyprop-1-yn-1-yl)-1H-pyrazolo[3,4-d]pyrimidin-1-yl)-3,4-dihydroxytetrahydrofuran-2-yl)methoxy)-1-hydroxypropan-2-yl)phosphonic acid]
8 | ≤ 100 | O=P(O)(O)[C@@](CO)(Cc1nn[nH]n1)OC[C@H]1O[C@@H](n2ncc3c(NCC4CC4)nc(Cl)nc32)[C@H](O)[C@@H]1O (racemic) [Example 197, rac-((R)-2-(((2R,3S,4R,5R)-5-(6-chloro-4-((cyclopropylmethyl)amino)-1H-pyrazolo[3,4-d]pyrimidin-1-yl)-3,4-dihydroxytetrahydrofuran-2-yl)methoxy)-1-hydroxy-3-(2H-tetrazol-5-yl)propan-2-yl)phosphonic acid]
9 | ≤ 100 | O=P(O)(O)C(CO)(CO)OC[C@H]1O[C@@H](n2ncc3c(N[C@@H]4CC[C@H]5CCC[C@H]54)nc(Cl)nc32)[C@H](O)[C@@H]1O (racemic) [Example 164, rac-(2-(((2R,3S,4R,5R)-5-(6-chloro-4-(((1R,3aR,6aR)-octahydropentalen-1-yl)amino)-1H-pyrazolo[3,4-d]pyrimidin-1-yl)-3,4-dihydroxytetrahydrofuran-2-yl)methoxy)-1,3-dihydroxypropan-2-yl)phosphonic acid]
10 | ≤ 100 | O=P(O)(O)C(CO)(CO)OC[C@H]1O[C@@H](n2ncc3c(NC4CCCC4)cc(Cl)nc32)[C@H](O)[C@@H]1O (racemic) [Example 200, rac-(2-(((2R,3S,4R,5R)-5-(6-chloro-4-(cyclopentylamino)-1H-pyrazolo[3,4-b]pyridin-1-yl)-3,4-dihydroxytetrahydrofuran-2-yl)methoxy)-1,3-dihydroxypropan-2-yl)phosphonic acid]
11 | ≤ 100 | COCC(OC[C@H]1O[C@@H](n2ncc3c(NC4CCCC4)nc(Cl)nc32)[C@H](O)[C@@H]1O)(C(=O)O)P(=O)(O)O (mixture of isomers) [Example 221, rac-(R)-2-(((2R,3S,4R,5R)-5-(6-chloro-4-(cyclopentylamino)-1H-pyrazolo[3,4-d]pyrimidin-1-yl)-3,4-dihydroxytetrahydrofuran-2-yl)methoxy)-3-methoxy-2-phosphonopropanoic acid]

Further lines, the compound ahead of its results:

Row | Structure (SMILES) | IC50 [nM]
12 | O=P(O)(O)C(CCO)S(=O)(=O)C[C@H]1O[C@@H](n2ncc3c(NC4CCCC4)nc(Cl)nc32)[C@H](O)[C@@H]1O (stereo partly drawn) [Example 34, (1-((((2S,3S,4R,5R)-5-(6-chloro-4-(cyclopentylamino)-1H-pyrazolo[3,4-d]pyrimidin-1-yl)-3,4-dihydroxytetrahydrofuran-2-yl)methyl)sulfonyl)-3-hydroxypropyl)phosphonic acid] | 100 to 1000
13 | O=P(O)(O)C(CO)(CO)OC[C@H]1O[C@@H](n2ncc3c(NC4CCCC4)nc(Cl)nc32)[C@H](O)[C@@H]1O [Example 86, [1-[[(2R,3S,4R,5R)-5-[6-Chloro-4-(cyclopentylamino)pyrazolo[3,4-d]pyrimidin-1-yl]-3,4-dihydroxy-tetrahydrofuran-2-yl]methoxy]-2-hydroxy-1-(hydroxymethyl)ethyl]phosphonic acid] | ≤ 100
14 | COCC(C)(OC[C@H]1O[C@@H](n2ncc3c(N[C@@H]4CCc5ccccc54)nc(Cl)nc32)[C@H](O)[C@@H]1O)P(=O)(O)O (stereo partly drawn) [Example 77, (2-(((2R,3S,4R,5R)-5-(6-chloro-4-(((R)-2,3-dihydro-1H-inden-1-yl)amino)-1H-pyrazolo[3,4-d]pyrimidin-1-yl)-3,4-dihydroxytetrahydrofuran-2-yl)methoxy)-1-methoxypropan-2-yl)phosphonic acid] | ≤ 100
15 | O=P(O)(O)C(CO)OC[C@H]1O[C@@H](n2ncc3c(NC4CCCC4)cc(Cl)nc32)[C@H](O)[C@@H]1O (stereo partly drawn) [Example 57, (1-(((2R,3S,4R,5R)-5-(6-Chloro-4-(cyclopentylamino)-1H-pyrazolo[3,4-b]pyridin-1-yl)-3,4-dihydroxytetrahydrofuran-2-yl)methoxy)-2-hydroxyethyl)phosphonic acid] | ≤ 100
16 | O=P(O)(O)C(CO)OC[C@H]1O[C@@H](n2ncc3c(NCC4CC4)nc(Cl)nc32)[C@H](O)[C@@H]1O (stereo partly drawn) [Example 30, (1-(((2R,3S,4R,5R)-5-(6-chloro-4-((cyclopropylmethyl)amino)-1H-pyrazolo[3,4-d]pyrimidin-1-yl)-3,4-dihydroxytetrahydrofuran-2-yl)methoxy)-2-hydroxyethyl)phosphonic acid] | ≤ 100
17 | O=C(O)C(OC[C@H]1O[C@@H](n2ncc3c(NC4CCCC4)nc(Cl)nc32)[C@H](O)[C@@H]1O)P(=O)(O)O (stereo partly drawn) [Example 28, 2-(((2R,3S,4R,5R)-5-(6-chloro-4-(cyclopentylamino)-1H-pyrazolo[3,4-d]pyrimidin-1-yl)-3,4-dihydroxytetrahydrofuran-2-yl)methoxy)-2-phosphonoacetic acid] | ≤ 100
18 | O=P(O)(O)C(CO)OC[C@H]1O[C@@H](n2ncc3c(NC4CCCC4)nc(Cl)nc32)[C@H](O)[C@@H]1O (stereo partly drawn) [Example 13, (1-(((2R,3S,4R,5R)-5-(6-chloro-4-(cyclopentylamino)-1H-pyrazolo[3,4-d]pyrimidin-1-yl)-3,4-dihydroxytetrahydrofuran-2-yl)methxoy)-2-hydroxyethyl)phosphonic acid] | ≤ 100
19 | O=P(O)(O)C(OC[C@H]1O[C@@H](n2ncc3c(NC4CCCC4)nc(Cl)nc32)[C@H](O)[C@@H]1O)c1nnn[nH]1 (stereo partly drawn) [Example 35, ((((2R,3S,4R,5R)-5-(6-chloro-4-(cyclopentylamino)-1H-pyrazolo[3,4-d]pyrimidin-1-yl)-3,4-dihydroxytetrahydrofuran-2-yl)methoxy)(1H-tetrazol-5-yl)methyl)phosphonic acid] | ≤ 100
20 | O=P(O)(O)CS(=O)(=O)C[C@H]1O[C@@H](n2nnc3c(N[C@@H]4CCc5ccccc54)cc(Cl)nc32)[C@H](O)[C@@H]1O [Example 83] | ≤ 100
21 | COCC(C)(OC[C@H]1O[C@@H](n2nnc3c(NC4CCCC4)nc(Cl)nc32)[C@H](O)[C@@H]1O)P(=O)(O)O (stereo partly drawn) [Example 82, (2-(((2R,3S,4R,5R)-5-(5-chloro-7-(cyclopentylamino)-3H-[1,2,3]triazolo[4,5-d]pyrimidin-3-yl)-3,4-dihydroxytetrahydrofuran-2-yl)methoxy)-1-methoxypropan-2-yl)phosphonic acid] | ≤ 100
